Laboratory results: paper PMC11012124, “Synthesis of Novel Triazine-Based Chalcones and 8,9-dihydro-7H-pyrimido[4,5-b][1,4]diazepines as Potential Leads in the Search of Anticancer, Antibacterial and Antifungal Agents” (International Journal of Molecular Sciences, 2024)

Columns and labels:
[1] = tested on: UO-31; assay: cells; details: Homo sapiens, UO-31, 48 h
[2] = tested on: M14; assay: cells; details: Homo sapiens, M14, 48 h
[3] = tested on: SF-295; assay: cells; details: Homo sapiens, SF-295, 48 h
[4] = tested on: MDA-MB-468; assay: cells; details: Homo sapiens, MDA-MB-468, 48 h
[5] = tested on: LOX IMVI; assay: cells; details: Homo sapiens, 48 h
[6] = tested on: NCI-H322M; assay: cells; details: Homo sapiens, 48 h
[7] = tested on: OVCAR-3; assay: cells; details: Homo sapiens, OVCAR-3, 48 h
[8] = tested on: HS 578T; assay: cells; details: Homo sapiens, 48 h
[9] = tested on: A549/ATCC; assay: cells; details: Homo sapiens, A549, 48 h
[10] = tested on: UACC-257; assay: cells; details: Homo sapiens, UACC-257, 48 h
[11] = tested on: HOP-92; assay: cells; details: Homo sapiens, HOP-92, 48 h
[12] = tested on: NCI-H23; assay: cells; details: Homo sapiens, NCI-H23, 48 h
[13] = tested on: HCT-116; assay: cells; details: Homo sapiens, HCT-116, 48 h
[14] = tested on: MDA-MB-231/ATCC; assay: cells; details: Homo sapiens, MDA-MB-231, 48 h
[15] = tested on: HCT-15; assay: cells; details: Homo sapiens, HCT-15, 48 h
[16] = tested on: SF-539; assay: cells; details: Homo sapiens, SF-539, 48 h
[17] = tested on: SNB-19; assay: cells; details: Homo sapiens, SNB-19, 48 h
[18] = tested on: 60 cancer cell lines; assay: NCI-60 one-dose screen (10 μM); assay type: cell-based; details: Homo sapiens; one dose of 10 μM, mean over 60 cancer cell lines; read-out: Mean Growth Percent (MGP)
Description: Additionally, the mean of the growth percentages (MGP) of each compound against all the 60 cancer cell lines is also reported, which is used as one of the selection criteria to continue with tests at five concentration doses.

[19] = tested on: BT-549; assay: cells; details: Homo sapiens, BT-549, 48 h
[20] = tested on: A498; assay: cells; details: Homo sapiens, A498, 48 h
[21] = tested on: RXF 393; assay: cells; details: Homo sapiens, RXF 393, 48 h
[22] = tested on: U251; assay: cells; details: Homo sapiens, U-251, 48 h
[23] = tested on: NCI-H226; assay: cells; details: Homo sapiens, NCI-H226, 48 h
[24] = tested on: PC-3; assay: cells; details: Homo sapiens, PC-3, 48 h
[25] = tested on: ACHN; assay: cells; details: Homo sapiens, 48 h
[26] = tested on: SF-268; assay: cells; details: Homo sapiens, SF-268, 48 h
[27] = tested on: COLO 205; assay: cells; details: Homo sapiens, COLO 205, 48 h
[28] = tested on: SNB-75; assay: cells; details: Homo sapiens, SNB-75, 48 h
[29] = tested on: EKVX; assay: cells; details: Homo sapiens, 48 h
[30] = tested on: UACC-62; assay: cells; details: Homo sapiens, UACC-62, 48 h
[31] = tested on: HOP-62; assay: cells; details: Homo sapiens, HOP-62, 48 h
[32] = tested on: HCC-2998; assay: cells; details: Homo sapiens, HCC 2998, 48 h
[33] = tested on: RPMI-8226; assay: cells; details: Homo sapiens, RPMI-8226, 48 h
[34] = tested on: SK-MEL-5; assay: cells; details: Homo sapiens, SK-MEL-5, 48 h
[35] = tested on: HT29; assay: cells; details: Homo sapiens, HT-29, 48 h
[36] = tested on: 786-0; assay: cells; details: Homo sapiens, 786-0, 48 h
[37] = tested on: MOLT-4; assay: cells; details: Homo sapiens, MOLT-4, 48 h

`COc1cc(/C=C/C(=O)c2cc(OC)c(OC)c(OC)c2)ccc1Oc1nc(NCCO)nc(N2CCOCC2)n1` [20d] was tested. Which GI50 [1] did it give?
Its GI50 is 1660 nM.

And the CC50 ([1]; read-out: LC50)?
Its CC50 is 6.5 µM.

What about the GI50 [2] of the same compound?
Its GI50 is 2380 nM.

And the CC50 ([2]; read-out: LC50)?
The CC50 was 37.9 µM.

And the GI50 [3]?
The GI50 was 2900 nM.

And the CC50 ([3]; read-out: LC50)?
Its CC50 is 35.2 µM.

What about the GI50 [4] of the same compound?
The GI50 was 1710 nM.

And the CC50 ([4]; read-out: LC50)?
Its CC50 is 14.3 µM.

What about the GI50 [5] of the same compound?
Its GI50 is 642 nM.

And the CC50 ([5]; read-out: LC50, LOX IMVI, 48 h)?
Its CC50 is 4.99 µM.

What about the GI50 [6] of the same compound?
The GI50 was 2910 nM.

And the CC50 ([6]; read-out: LC50)?
Its CC50 is 29.3 µM.

And the GI50 [7]?
The GI50 was 3.2 µM.

What about the CC50 ([7]; read-out: LC50) of the same compound?
The CC50 was 34.4 µM.

What about the GI50 [8] of the same compound?
The GI50 was 3.62 µM.

What about the CC50 ([8]; read-out: LC50) of the same compound?
The CC50 was greater than 100 µM.

What about the GI50 [9] of the same compound?
The GI50 was 2780 nM.

What about the CC50 ([9]; read-out: LC50) of the same compound?
The CC50 was 42.2 µM.

And the GI50 [10]?
Its GI50 is 2830 nM.

What about the CC50 ([10]; read-out: LC50) of the same compound?
Its CC50 is 36.7 µM.

And the GI50 [11]?
The GI50 was 2750 nM.

And the CC50 ([11]; read-out: LC50)?
The CC50 was 35.4 µM.

What about the GI50 [12] of the same compound?
The GI50 was 1990 nM.

What about the CC50 ([12]; read-out: LC50) of the same compound?
The CC50 was 17.5 µM.

And the GI50 [13]?
Its GI50 is 1530 nM.

What about the CC50 ([13]; read-out: LC50) of the same compound?
The CC50 was 6.78 µM.

And the GI50 [14]?
Its GI50 is 2860 nM.

And the CC50 ([14]; read-out: LC50)?
The CC50 was 35.4 µM.

What about the GI50 [15] of the same compound?
The GI50 was 1600 nM.

What about the CC50 ([15]; read-out: LC50) of the same compound?
Its CC50 is 10.2 µM.

And the GI50 [16]?
The GI50 was 1880 nM.

What about the CC50 ([16]; read-out: LC50, SF-539, 48 h) of the same compound?
Its CC50 is 13 µM.

What about the GI50 [17] of the same compound?
Its GI50 is 2310 nM.

And the CC50 ([17]; read-out: LC50)?
Its CC50 is 29.9 µM.

And the activity at 10 µM [18]?
The activity at 10 µM was 0.79%.

What about the GI50 [19] of the same compound?
Its GI50 is 1600 nM.

What about the CC50 ([19]; read-out: LC50) of the same compound?
The CC50 was 6.88 µM.

What about the GI50 [20] of the same compound?
Its GI50 is 3.58 µM.

What about the CC50 ([20]; read-out: LC50) of the same compound?
The CC50 was 37 µM.

What about the GI50 [21] of the same compound?
Its GI50 is 1750 nM.

What about the CC50 ([21]; read-out: LC50) of the same compound?
Its CC50 is 6.94 µM.

What about the GI50 ([22]; U251, 48 h) of the same compound?
The GI50 was 1620 nM.

What about the CC50 ([22]; read-out: LC50) of the same compound?
The CC50 was 6.02 µM.

And the GI50 [23]?
The GI50 was 3.69 µM.

What about the CC50 ([23]; read-out: LC50) of the same compound?
Its CC50 is greater than 100 µM.

What about the GI50 [24] of the same compound?
Its GI50 is 3.11 µM.

And the CC50 ([24]; read-out: LC50)?
The CC50 was 43.2 µM.

What about the GI50 [25] of the same compound?
The GI50 was 1640 nM.

What about the CC50 ([25]; read-out: LC50) of the same compound?
The CC50 was 7.9 µM.

And the GI50 [26]?
The GI50 was 3.02 µM.

And the CC50 ([26]; read-out: LC50)?
Its CC50 is 71.8 µM.

What about the GI50 [27] of the same compound?
Its GI50 is 2100 nM.

And the CC50 ([27]; read-out: LC50)?
The CC50 was 9.18 µM.

And the GI50 [28]?
The GI50 was 1790 nM.

And the CC50 ([28]; read-out: LC50)?
Its CC50 is 24.2 µM.

And the GI50 [29]?
The GI50 was 2810 nM.

And the CC50 ([29]; read-out: LC50)?
The CC50 was 36.6 µM.

What about the GI50 [30] of the same compound?
The GI50 was 1690 nM.

And the CC50 ([30]; read-out: LC50)?
Its CC50 is 6.03 µM.

And the GI50 [31]?
The GI50 was 2350 nM.

What about the CC50 ([31]; read-out: LC50) of the same compound?
Its CC50 is 22.4 µM.

And the GI50 [32]?
The GI50 was 2230 nM.

What about the CC50 ([32]; read-out: LC50) of the same compound?
Its CC50 is 7.97 µM.

And the GI50 [33]?
The GI50 was 1630 nM.

What about the CC50 ([33]; read-out: LC50) of the same compound?
Its CC50 is greater than 100 µM.

And the GI50 [34]?
Its GI50 is 1770 nM.

And the CC50 ([34]; read-out: LC50)?
The CC50 was 6.19 µM.

What about the GI50 [35] of the same compound?
The GI50 was 2830 nM.

What about the CC50 ([35]; read-out: LC50) of the same compound?
The CC50 was 32.9 µM.

And the GI50 [36]?
The GI50 was 3.46 µM.

And the CC50 ([36]; read-out: LC50)?
Its CC50 is 43.6 µM.

What about the GI50 [37] of the same compound?
The GI50 was 1980 nM.

What about the CC50 ([37]; read-out: LC50) of the same compound?
Its CC50 is greater than 100 µM.
